# Assay results published in ChEMBL document CHEMBL4765227, “Hit to lead optimization of a series of N-[4-(1,3-benzothiazol-2-yl)phenyl]acetamides as monoacylglycerol lipase inhibitors with potential anticancer activity” (Eur J Med Chem, 2016).
# Columns and labels:
# Type in all cases: functional
# UACC-62 = experiment: Growth inhibition of human UACC-62 cells incubated for 48 hrs by sulforhodamine B assay
# TK-10 = experiment: Growth inhibition of human TK-10 cells incubated for 48 hrs by sulforhodamine B assay
# IGROV-1 = experiment: Growth inhibition of human IGROV-1 cells incubated for 48 hrs by sulforhodamine B assay
# 786-0 = experiment: Growth inhibition of human 786-0 cells incubated for 48 hrs by sulforhodamine B assay
# UO-31 = experiment: Growth inhibition of human UO-31 cells incubated for 48 hrs by sulforhodamine B assay
# NCI-H522 = experiment: Growth inhibition of human NCI-H522 cells incubated for 48 hrs by sulforhodamine B assay
# SF-295 = experiment: Growth inhibition of human SF-295 cells incubated for 48 hrs by sulforhodamine B assay
# RXF 393 = experiment: Growth inhibition of human RXF 393 cells incubated for 48 hrs by sulforhodamine B assay
# A498 = experiment: Growth inhibition of human A498 cells incubated for 48 hrs by sulforhodamine B assay
# MCF7 = experiment: Growth inhibition of human MCF7 cells incubated for 48 hrs by sulforhodamine B assay
# NCI-H226 = experiment: Growth inhibition of human NCI-H226 cells incubated for 48 hrs by sulforhodamine B assay
# SK-OV-3 = experiment: Growth inhibition of human SK-OV-3 cells incubated for 48 hrs by sulforhodamine B assay
# SK-MEL-2 = experiment: Growth inhibition of human SK-MEL-2 cells incubated for 48 hrs by sulforhodamine B assay
# SK-MEL-5 = experiment: Growth inhibition of human SK-MEL-5 cells incubated for 48 hrs by sulforhodamine B assay
# OVCAR-4 = experiment: Growth inhibition of human OVCAR-4 cells incubated for 48 hrs by sulforhodamine B assay
# SF-268 = experiment: Growth inhibition of human SF-268 cells incubated for 48 hrs by sulforhodamine B assay
# SR = experiment: Growth inhibition of human SR cells incubated for 48 hrs by sulforhodamine B assay
# MOLT-4 = experiment: Growth inhibition of human MOLT-4 cells incubated for 48 hrs by sulforhodamine B assay
# OVCAR-3 = experiment: Growth inhibition of human OVCAR-3 cells incubated for 48 hrs by sulforhodamine B assay
# MDA-MB-435 = experiment: Growth inhibition of human MDA-MB-435 cells incubated for 48 hrs by sulforhodamine B assay
# SNB-75 = experiment: Growth inhibition of human SNB-75 cells incubated for 48 hrs by sulforhodamine B assay
# M14 = experiment: Growth inhibition of human M14 cells incubated for 48 hrs by sulforhodamine B assay
# CAKI-1 = experiment: Growth inhibition of human CAKI-1 cells incubated for 48 hrs by sulforhodamine B assay
# COLO 205 = experiment: Growth inhibition of human COLO 205 cells incubated for 48 hrs by sulforhodamine B assay
# SF-539 = experiment: Growth inhibition of human SF-539 cells incubated for 48 hrs by sulforhodamine B assay
# UACC-257 = experiment: Growth inhibition of human UACC-257 cells incubated for 48 hrs by sulforhodamine B assay
# Hs-578T = experiment: Growth inhibition of human Hs-578T cells incubated for 48 hrs by sulforhodamine B assay
# RPMI-8226 = experiment: Growth inhibition of human RPMI-8226 cells incubated for 48 hrs by sulforhodamine B assay
# T47D = experiment: Growth inhibition of human T47D cells incubated for 48 hrs by sulforhodamine B assay
# HCT-15 = experiment: Growth inhibition of human HCT-15 cells incubated for 48 hrs by sulforhodamine B assay
# MDA-MB-468 = experiment: Growth inhibition of human MDA-MB-468 cells incubated for 48 hrs by sulforhodamine B assay
# Malme-3M = experiment: Growth inhibition of human Malme-3M cells incubated for 48 hrs by sulforhodamine B assay
# OVCAR-5 = experiment: Growth inhibition of human OVCAR-5 cells incubated for 48 hrs by sulforhodamine B assay
# BT-549 = experiment: Growth inhibition of human BT-549 cells incubated for 48 hrs by sulforhodamine B assay
# EKVX = experiment: Growth inhibition of human EKVX cells incubated for 48 hrs by sulforhodamine B assay
# [1] = read-out: LC50 (the source's name)
compound,measurement,setting,value
O=C(CNc1ccc(Cl)cc1)Nc1ccc(-c2nc3ccccc3s2)cc1,GI50,UACC-62,1.7 µM
same,LC50,UACC-62,19.4 µM
same,TGI,UACC-62,4.22 µM
same,GI50,TK-10,2.2 µM
same,LC50,TK-10,21.5 µM
same,TGI,TK-10,5.84 µM
same,GI50,IGROV-1,1.9 µM
same,TGI,IGROV-1,4.27 µM
same,CC50,IGROV-1; [1],9.59 µM
same,GI50,786-0,1.85 µM
same,LC50 (50% lethal concentration),786-0,9 µM
same,TGI,786-0,4.08 µM
same,GI50,UO-31,1.96 µM
same,LC50 (concentration killing 50% of cells),UO-31,40.3 µM
same,TGI,UO-31,9.79 µM
same,GI50,NCI-H522,1.32 µM
same,LC50 (50% lethal concentration),NCI-H522,7.46 µM
same,TGI,NCI-H522,3.13 µM
same,GI50,SF-295,1.28 µM
same,LC50 (concentration causing 50% net cell kill),SF-295,61.8 µM
same,TGI,SF-295,28.1 µM
same,GI50,RXF 393,1.66 µM
same,LC50 (concentration killing 50% of cells),RXF 393,7.68 µM
same,TGI,RXF 393,3.57 µM
same,GI50,A498,13 µM
same,TGI,A498,25.8 µM
same,CC50,A498; [1],50.9 µM
same,GI50,MCF7,0.0325 µM
same,LC50,MCF7,> 100 µM
same,TGI,MCF7,2.5 µM
same,GI50,NCI-H226,2.25 µM
same,LC50,NCI-H226,> 100 µM
same,TGI,NCI-H226,7.1 µM
same,GI50,SK-OV-3,4.57 µM
same,LC50 (concentration killing 50% of cells),SK-OV-3,> 100 µM
same,TGI,SK-OV-3,61.8 µM
same,GI50,SK-MEL-2,6.19 µM
same,"LC50 (lethal concentration, 50% cell kill)",SK-MEL-2,> 100 µM
same,TGI,SK-MEL-2,27.9 µM
same,GI50,SK-MEL-5,1.57 µM
same,LC50 (50% lethal concentration),SK-MEL-5,6.53 µM
same,TGI,SK-MEL-5,3.2 µM
same,GI50,OVCAR-4,2.24 µM
same,LC50,OVCAR-4,42.3 µM
same,TGI,OVCAR-4,8.49 µM
same,GI50,SF-268,2 µM
same,LC50,SF-268,15 µM
same,TGI,SF-268,4.76 µM
same,GI50,SR,1.62 µM
same,LC50,SR,> 100 µM
same,TGI,SR,5.76 µM
same,GI50,MOLT-4,1.25 µM
same,LC50,MOLT-4,> 100 µM
same,TGI,MOLT-4,7.09 µM
same,GI50,OVCAR-3,1.85 µM
same,LC50,OVCAR-3,5.88 µM
same,TGI,OVCAR-3,3.3 µM
same,GI50,MDA-MB-435,2.66 µM
same,LC50,MDA-MB-435,42.7 µM
same,TGI,MDA-MB-435,11.1 µM
same,GI50,SNB-75,2.65 µM
same,LC50 (concentration killing 50% of cells),SNB-75,37.6 µM
same,TGI,SNB-75,14.1 µM
same,GI50,M14,1.78 µM
same,TGI,M14,3.84 µM
same,CC50,M14; [1],8.28 µM
same,GI50,CAKI-1,2.74 µM
same,LC50 (concentration killing 50% of cells),CAKI-1,34.4 µM
same,TGI,CAKI-1,10.5 µM
same,GI50,COLO 205,2.08 µM
same,LC50,COLO 205,9.08 µM
same,TGI,COLO 205,4.35 µM
same,GI50,SF-539,1.86 µM
same,LC50,SF-539,7.14 µM
same,TGI,SF-539,3.65 µM
same,GI50,UACC-257,3.12 µM
same,LC50,UACC-257,57.7 µM
same,TGI,UACC-257,11.1 µM
same,GI50,Hs-578T,4.41 µM
same,LC50,Hs-578T,> 100 µM
same,TGI,Hs-578T,37.7 µM
same,GI50,RPMI-8226,2.52 µM
same,LC50,RPMI-8226,> 100 µM
same,TGI,RPMI-8226,6.73 µM
same,GI50,T47D,1.86 µM
same,LC50 (concentration killing 50% of cells),T47D,> 100 µM
same,TGI,T47D,5.94 µM
same,GI50,HCT-15,1.56 µM
same,TGI,HCT-15,4.74 µM
same,CC50,HCT-15; [1],45.9 µM
same,GI50,MDA-MB-468,0.0238 µM
same,TGI,MDA-MB-468,0.353 µM
same,CC50,MDA-MB-468; [1],6.19 µM
same,GI50,Malme-3M,1.98 µM
same,TGI,Malme-3M,4.22 µM
same,CC50,Malme-3M; [1],8.99 µM
same,GI50,OVCAR-5,2.26 µM
same,LC50 (concentration killing 50% of cells),OVCAR-5,23.9 µM
same,TGI,OVCAR-5,5.8 µM
same,GI50,BT-549,1.57 µM
same,LC50 (concentration killing 50% of cells),BT-549,9.1 µM
same,TGI,BT-549,3.78 µM
same,GI50,EKVX,4.36 µM
same,LC50,EKVX,66.9 µM
same,TGI,EKVX,19.1 µM
